Test results reported in patent US8415379B2, “Pyridines” (Hoffmann-La Roche Inc., priority 2009, dated 2013).

Target: T1, GABA A α5 (human receptors of composition α5β3γ2) (Homo sapiens, UniProt P18507+P31644)
T1 construct: expressed in transfected cells; host or cells: HEK293 cells, transiently transfected; membrane homogenates used
Assay: [3H]flumazenil competition binding assay, human GABA A α5β3γ2 receptors in HEK293 cells
Details: displacement of 0.5 nM [3H]flumazenil, HEK293 membranes, 1 hour at 4° C., means of two determinations, read-out: hKi GABA A α5
Procedure: The affinity of compounds at GABA A receptor subtypes was measured by competition for [^3H]flumazenil (85 Ci/mmol; Roche) binding to HEK293 cells expressing rat (stably transfected) or human (transiently transfected) receptors of composition α1β3γ2, α2β3γ2, α3β3γ2 and α5β3γ2.
Cell pellets were suspended in Krebs-tris buffer (4.8 mM KCl, 1.2 mM CaCl2, 1.2 mM MgCl2, 120 mM NaCl, 15 mM Tris; pH 7.5; binding assay buffer), homogenized by polytron for ca. 20 sec on ice and centrifuged for 60 min at 4° C. (50000 g; Sorvall, rotor: SM24=20000 rpm). The cell pellets were re-suspended in Krebs-tris buffer and homogenized by polytron for ca. 15 sec on ice. Protein was measured (Bradford method, Bio-Rad) and aliquots of 1 mL were prepared and stored at −80° C.
Radioligand binding assays were carried out in a volume of […] (96-well plates) which contained […] of cell membranes, [^3H]flumazenil at a concentration of 1 nM for α1, α2 and α3 subunits and 0.5 nM for α5 subunits and the test compound in the range of […]. Nonspecific binding was defined by 10^−5 M diazepam and typically represented less than 5% of the total binding. Assays were incubated to equilibrium for 1 hour at 4° C. and harvested onto GF/C uni-filters (Packard) by filtration using a Packard harvester and washing with ice-cold wash buffer (50 mM Tris; pH 7.5). After drying, filter-retained radioactivity was detected by liquid scintillation counting. Ki values were calculated using Excel-Fit (Microsoft) and are the means of two determinations.

Row | Compound | Ki [nM]
1 | CC[C@@H](CO)NC(=O)c1ccc(OCc2c(-c3ccccn3)noc2C)cn1 [Example 21, 5-(5-Methyl-3-pyridin-2-yl-isoxazol-4-ylmethoxy)-pyridine-2-carboxylic acid ((S)-1-hydroxymethyl-propyl)-amide] | 4.3
2 | CC[C@@H](CO)NC(=O)c1ccc(OCc2c(-c3ccc(F)cc3)noc2CO)cn1 [Example 34, 5-[3-(4-Fluoro-phenyl)-5-hydroxymethyl-isoxazol-4-ylmethoxy]-pyridine-2-carboxylic acid ((S)-1-hydroxymethyl-propyl)-amide] | 8.3
3 | CC(C)(C)NC(=O)c1ccc(OCc2c(-c3ccc(F)cc3)noc2CO)cn1 [Example 36, 5-[3-(4-Fluoro-phenyl)-5-hydroxymethyl-isoxazol-4-ylmethoxy]-pyridine-2-carboxylic acid tert-butylamide] | 74.2
4 | O=C(c1ccc(OCc2c(-c3ccc(F)cc3)noc2CO)cn1)N1CCC(F)(F)CC1 [Example 37, (4,4-Difluoro-piperidin-1-yl)-{5-[3-(4-fluoro-phenyl)-5-hydroxymethyl-isoxazol-4-ylmethoxy]-pyridin-2-yl}-methanone] | 10.2
5 | Cc1onc(-c2ccccn2)c1COc1ccc(C(=O)N2CCS(=O)(=O)CC2)nc1 [Example 10, (1,1-Dioxo-1,6-thiomorpholin-4-yl)-[5-(5-methyl-3-pyridin-2-yl-isoxazol-4-ylmethoxy)-pyridin-2-yl]-methanone] | 34.2
6 | Cc1onc(-c2ccccn2)c1COc1ccc(C(=O)NC2CC2)nc1 [Example 11, 5-(5-Methyl-3-pyridin-2-yl-isoxazol-4-ylmethoxy)-pyridine-2-carboxylic acid cyclopropyl amide] | 3.5
7 | O=C(NC1CC1)c1ccc(OCc2c(-c3ccc(F)cc3)noc2CO)cn1 [Example 31, 5-[3-(4-Fluoro-phenyl)-5-hydroxymethyl-isoxazol-4-ylmethoxy]-pyridine-2-carboxylic acid cyclopropylamide] | 23.3
8 | Cc1onc(-c2ccccc2)c1COc1ccc(C(=O)NC2CCOC2)nc1 (racemic) [Example 3, Rac-5-(5-Methyl-3-phenyl-isoxazol-4-ylmethoxy)-pyridine-2-carboxylic acid (tetrahydro-furan-3-yl)-amide] | 13.9
9 | CC(C)NC(=O)c1ccc(OCc2c(-c3ccc(F)cc3)noc2CO)cn1 [Example 29, 5-[3-(4-Fluoro-phenyl)-5-hydroxymethyl-isoxazol-4-ylmethoxy]-pyridine-2-carboxylic acid isopropylamide] | 70.2
10 | CNC(=O)c1ccc(OCc2c(-c3ccccn3)noc2C)cn1 [Example 16, 5-(5-Methyl-3-pyridin-2-yl-isoxazol-4-ylmethoxy)-pyridine-2-carboxylic acid methylamide] | 7.1
11 | Cc1onc(-c2ccccn2)c1COc1ccc(C(=O)NC(C)(C)CO)nc1 [Example 8, 5-(5-Methyl-3-pyridin-2-yl-isoxazol-4-ylmethoxy)-pyridine-2-carboxylic acid (2-hydroxy-1,1-dimethyl-ethyl)-amide] | 22.3
12 | Cc1onc(-c2ccccn2)c1COc1ccc(C(=O)Nc2cnn(C)c2)nc1 [Example 19, 5-(5-Methyl-3-pyridin-2-yl-isoxazol-4-ylmethoxy)-pyridine-2-carboxylic acid (1-methyl-1H-pyrazol-4-yl)-amide] | 1.7
13 | Cc1onc(-c2ccccn2)c1COc1ccc(C(=O)NCC2CC2)nc1 [Example 12, 5-(5-Methyl-3-pyridin-2-yl-isoxazol-4-ylmethoxy)-pyridine-2-carboxylic acid cyclopropyl-methyl-amide] | 7.1
14 | O=C(NC1CCOCC1)c1ccc(OCc2c(-c3ccc(F)cc3)noc2CO)cn1 [Example 30, 5-[3-(4-Fluoro-phenyl)-5-hydroxymethyl-isoxazol-4-ylmethoxy]-pyridine-2-carboxylic acid (tetrahydro-pyran-4-yl)-amide] | 30.3

Continued by falling Ki, values first:

Row | Ki [nM] | Compound
15 | 60.4 | CC(NC(=O)c1ccc(OCc2c(-c3ccc(F)cc3)noc2CO)cn1)C(F)(F)F (stereo not drawn) [Example 32, 5-[3-(4-Fluoro-phenyl)-5-hydroxymethyl-isoxazol-4-ylmethoxy]-pyridine-2-carboxylic acid (2,2,2-trifluoro-1-methyl-ethyl)-amide]
16 | 36.9 | Cc1onc(-c2ccc(F)cn2)c1COc1ccc(C(=O)N2CCS(=O)(=O)CC2)nc1 [Example 26, (1,1-Dioxo-1,6-thiomorpholin-4-yl)-{5-[3-(5-fluoro-pyridin-2-yl)-5-methyl-isoxazol-4-ylmethoxy]-pyridin-2-yl}-methanone]
17 | 26.5 | Cc1onc(-c2ccccc2)c1COc1ccc(C(=O)NN(C)C)nc1 [Example 4, 5-(5-Methyl-3-phenyl-isoxazol-4-ylmethoxy)-pyridine-2-carboxylic acid N′,N′-dimethyl-hydrazide]
18 | 17.5 | Cc1onc(-c2ccc(F)cn2)c1COc1ccc(C(=O)NC(C)(C)CO)nc1 [Example 24, 5-[3-(5-Fluoro-pyridin-2-yl)-5-methyl-isoxazol-4-ylmethoxy]-pyridine-2-carboxylic acid (2-hydroxy-1,1-dimethyl-ethyl)-amide]
19 | 15.4 | Cc1onc(-c2ccccc2)c1COc1ccc(C(=O)NCCO)nc1 [Example 1, 5-(5-Methyl-3-phenyl-isoxazol-4-ylmethoxy)-pyridine-2-carboxylic acid (2-hydroxy-ethyl)-amide]
20 | 8.9 | Cc1onc(-c2ccccc2)c1COc1ccc(C(=O)NC(C)C)nc1 [Example 2, 5-(5-Methyl-3-phenyl-isoxazol-4-ylmethoxy)-pyridine-2-carboxylic acid isopropylamide]
21 | 5.8 | CCNC(=O)c1ccc(OCc2c(-c3ccccn3)noc2C)cn1 [Example 15, 5-(5-Methyl-3-pyridin-2-yl-isoxazol-4-ylmethoxy)-pyridine-2-carboxylic acid ethylamide]
22 | 5.6 | Cc1onc(-c2ccccn2)c1COc1ccc(C(=O)N[C@H]2CCC[C@@H]2O)nc1 [Example 18, 5-(5-Methyl-3-pyridin-2-yl-isoxazol-4-ylmethoxy)-pyridine-2-carboxylic acid ((1S,2S)-2-hydroxy-cyclopentyl)-amide]
23 | 5.6 | Cc1onc(-c2ccccn2)c1COc1ccc(C(=O)N[C@@H](C)C(F)(F)F)nc1 [Example 22, 5-(5-Methyl-3-pyridin-2-yl-isoxazol-4-ylmethoxy)-pyridine-2-carboxylic acid ((S)-2,2,2-trifluoro-1-methyl-ethyl)-amide]
24 | 3.4 | O=C(NN1CCCC1)c1ccc(OCc2c(-c3ccc(F)cc3)noc2CO)cn1 [Example 38, 5-[3-(4-Fluoro-phenyl)-5-hydroxymethyl-isoxazol-4-ylmethoxy]-pyridine-2-carboxylic acid pyrrolidin-1-ylamide]
25 | 3.3 | Cc1onc(-c2ccc(F)cn2)c1COc1ccc(C(=O)NC(C)C)nc1 [Example 23, 5-[3-(5-Fluoro-pyridin-2-yl)-5-methyl-isoxazol-4-ylmethoxy]-pyridine-2-carboxylic acid isopropylamide]
26 | 3.2 | Cc1onc(-c2ccccn2)c1COc1ccc(C(=O)NC(C)C)nc1 [Example 7, 5-(5-Methyl-3-pyridin-2-yl-isoxazol-4-ylmethoxy)-pyridine-2-carboxylic acid isopropyl-amide]
27 | 2.6 | Cc1onc(-c2ccc(F)cn2)c1COc1ccc(C(=O)NC2CC2)nc1 [Example 27, 5-[3-(5-Fluoro-pyridin-2-yl)-5-methyl-isoxazol-4-ylmethoxy]-pyridine-2-carboxylic acid cyclopropylamide]
